Assays:
Conditions in all cases: 72 h
[1] = tested on: Calu-3; assay: cell viability relative to DMSO; higher = less toxic
[2] = tested on: HepG2; assay: as above
[3] = tested on: Caco-2; assay: as above
[4] = tested on: U2OS; assay: as above
[5] = tested on: Calu-3; assay: drug sensitivity score (DSS) for viability; higher = more toxic; extreme values may be limits of the assay
[6] = tested on: HepG2; assay: as above
[7] = tested on: Caco-2; assay: as above
[8] = tested on: U2OS; assay: as above
[9] = tested on: Calu-3; assay: relative viability EC50 (midpoint between 100% and the lowest measured viability); higher = less toxic
[10] = tested on: HepG2; assay: as above
[11] = tested on: Caco-2; assay: as above
[12] = tested on: U2OS; assay: as above
[13] = tested on: Vero E6; assay: cell viability relative to DMSO; higher = less toxic
[14] = tested on: Vero E6; assay: drug sensitivity score (DSS) for viability; higher = more toxic; extreme values may be limits of the assay

Row | SMILES | cell viability ([1]; 1 nM) | cell viability ([1]; 10 nM) | cell viability ([1]; 100 nM) | cell viability ([1]; 1000 nM) | cell viability ([1]; 10000 nM) | cell viability ([2]; 1 nM) | cell viability ([2]; 10 nM) | cell viability ([2]; 100 nM) | cell viability ([2]; 1000 nM) | cell viability ([2]; 10000 nM) | cell viability ([3]; 1 nM) | cell viability ([3]; 10 nM) | cell viability ([3]; 100 nM) | cell viability ([3]; 1000 nM) | cell viability ([3]; 10000 nM) | cell viability ([4]; 1 nM) | cell viability ([4]; 10 nM) | cell viability ([4]; 100 nM) | cell viability ([4]; 1000 nM) | cell viability ([4]; 10000 nM) | drug sensitivity score [5] | drug sensitivity score [6] | drug sensitivity score [7] | drug sensitivity score [8] | relative viability EC50 [9] | relative viability EC50 [10] | relative viability EC50 [11] | relative viability EC50 [12] | cell viability ([13]; 1 nM) | cell viability ([13]; 10 nM) | cell viability ([13]; 100 nM) | cell viability ([13]; 1000 nM) | cell viability ([13]; 10000 nM) | drug sensitivity score [14]
1 | CCOC(=O)[C@H](Cc1ccc([N+](=O)[O-])cc1)NC(=O)c1ccccc1 | 92.9% | 103% | 96.8% | 102% | 106% | 99.4% | 93.2% | 107% | 101% | 95.2% | 104% | 97.9% | 102% | 96.7% | 90.7% | 101% | 98.3% | 98.5% | 101% | 102% | 0 | 0 | 0 | 0 | > 10 µM | > 10 µM | > 10 µM | > 10 µM |  |  |  |  |  | 
2 | CCc1cc(C(C)=O)c(O)cc1OCCCCCC(C)(C)c1nn[nH]n1 | 108% | 103% | 97.1% | 98% | 93.3% | 99.8% | 107% | 105% | 88.4% | 107% | 102% | 92.1% | 99.5% | 107% | 94.5% | 94% | 96.2% | 88.1% | 97.4% | 95.5% | 0 | 0 | 0 | 0 | > 10 µM | > 10 µM | > 10 µM | > 10 µM |  |  |  |  |  | 
3 | COc1ccc(Nc2ccn(-c3ccccc3)n2)cc1 |  |  |  |  |  | 102% | 97.2% | 97.6% | 114% | 100% | 102% | 98.5% | 90% | 97.4% | 89.4% | 95% | 100% | 94.2% | 99.5% | 96.2% |  | 0 | 0 | 0 |  | > 10 µM | > 10 µM | > 10 µM |  |  |  |  |  | 
4 | Cc1cc(Nc2cc(CN3CCOCC3)c3nc(C)c(Cc4ccc(Cl)cc4F)n3n2)n[nH]1 | 107% | 99.7% | 97.1% | 91% | 50.6% | 101% | 105% | 97.5% | 75.5% | 32.7% | 102% | 98.2% | 105% | 96.7% | 62.8% | 104% | 105% | 104% | 99.4% | 29.6% | 4.1 | 6.9 | 2.3 | 4 |  | 1.29 µM |  | 3.11 µM | 96.4% | 98% | 96.8% | 95.8% | 70.7% | 1.9
5 | NCCCCN(Cc1nc2ccccc2[nH]1)[C@H]1CCCc2cccnc21 | 98.9% | 93.1% | 96.2% | 90.4% | 89.8% | 100% | 104% | 97.6% | 105% | 82.8% | 100% | 93.3% | 97.1% | 97.2% | 104% | 106% | 100% | 97.3% | 96.6% | 98.3% | 0 | 0.2 | 0 | 0 | > 10 µM | > 10 µM | > 10 µM | > 10 µM |  |  |  |  |  | 
6 | NS(=O)(=O)Nc1ncnc(OCCOc2ncc(Br)cn2)c1-c1ccc(Br)cc1 | 88.4% | 99.1% | 95.6% | 104% | 94.7% | 102% | 104% | 98.9% | 92.9% | 90.9% | 106% | 94.3% | 102% | 93.8% | 97% | 97.8% | 94.5% | 96.9% | 102% | 105% | 0 | 0 | 0 | 0 | > 10 µM | > 10 µM | > 10 µM | > 10 µM |  |  |  |  |  | 
7 | Cc1cc([C@@H](C)Nc2ccccc2C(=O)O)c2nc(N3CCOCC3)cc(=O)n2c1 [AZD6482] | 97.7% | 105% | 94.2% | 100% | 69% | 103% | 102% | 99.9% | 85.5% | 79.7% | 93.5% | 102% | 90% | 83.6% | 57.5% | 100% | 101% | 96.1% | 99.8% | 80.8% | 1.3 | 2 | 3.9 | 0.6 |  | > 10 µM |  | > 10 µM | 108% | 96.5% | 89.3% | 79.8% | 67.6% | 4.1
8 | NC(=O)Nc1cc(-c2cccc(F)c2)sc1C(=O)N[C@H]1CCCNC1 [AZD7762] | 106% | 96.4% | 94.8% | 43.4% | 7% | 97.8% | 101% | 103% | 37.8% | 1.3% | 96.3% | 91.5% | 102% | 82.6% | 25% | 101% | 95.9% | 97.3% | 6.1% | 0.1% | 12 | 12.7 | 6.9 | 17.4 | 0.736 µM | 0.809 µM | 1.61 µM | 0.352 µM | 92% | 99.1% | 90.7% | 84.6% | 52.4% | 4.1

— the supplement of paper PMC13380429
